Positions of bridges follow the written chain, without caps; N, C: chain ends. Non-standard residues stand in square brackets, D forms with d. Residues, ends and D or L forms follow the SMILES beside them. *: point of attachment. Trp(7-Me) = Cc1cccc2c(C[C@H](N)C(=O)O)c[nH]c12; 2Nal = N[C@@H](Cc1ccc2ccccc2c1)C(=O)O; AEF = NCCOc1ccc(C[C@H](N)C(=O)O)cc1; αMeY = C[C@](N)(Cc1ccc(O)cc1)C(=O)O; αMeF = C[C@](N)(Cc1ccccc1)C(=O)O; αMeE = C[C@](N)(CCC(=O)O)C(=O)O; Cit = NC(=O)NCCC[C@H](N)C(=O)O; αMeL = CC(C)C[C@](C)(N)C(=O)O; Pen = CC(C)(S)[C@H](N)C(=O)O; αMeK = C[C@](N)(CCCCN)C(=O)O; Thp = NC1(C(=O)O)CCOCC1; Aib = CC(C)(N)C(=O)O; X2 = c1c[nH]c(CN*)n1; X6 = c1cc(N*)n[nH]1; X7 = Nc1cccc(N*)c1; X4 = C1CC(N*)CCN1
Target: IL-23R (Homo sapiens, UniProt Q5VWK5)
Assay: cell-based
Conditions: PBMC pSTAT3 IC50 (nM), PBMCs from healthy donors, IL-23 5 ng/mL, 30 minutes, phosphorylated STAT3
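Also: cryopreserved PBMCs stimulated at 37 °C in 5% CO2, then lysed, with phosphorylated STAT3 quantified in lysates using a phospho-STAT panel kit.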

Chain of IL-23R (Q5VWK5 24-629): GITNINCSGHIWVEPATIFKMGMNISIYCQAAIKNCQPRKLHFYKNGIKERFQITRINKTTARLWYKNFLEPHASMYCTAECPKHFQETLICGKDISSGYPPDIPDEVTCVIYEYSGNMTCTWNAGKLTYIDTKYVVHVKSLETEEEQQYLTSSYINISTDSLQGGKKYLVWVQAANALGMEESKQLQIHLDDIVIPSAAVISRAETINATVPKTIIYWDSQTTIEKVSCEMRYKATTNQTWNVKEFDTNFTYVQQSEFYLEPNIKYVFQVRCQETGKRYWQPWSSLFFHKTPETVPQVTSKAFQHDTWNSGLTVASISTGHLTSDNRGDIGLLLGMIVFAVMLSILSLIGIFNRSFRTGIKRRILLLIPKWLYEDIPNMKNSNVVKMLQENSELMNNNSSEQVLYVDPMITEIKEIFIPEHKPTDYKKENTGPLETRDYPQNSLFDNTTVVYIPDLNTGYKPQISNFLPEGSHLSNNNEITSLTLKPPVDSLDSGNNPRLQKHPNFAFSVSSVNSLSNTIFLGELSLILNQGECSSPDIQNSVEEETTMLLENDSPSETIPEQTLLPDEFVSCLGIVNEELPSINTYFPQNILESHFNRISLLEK

CC(=O)N[C@H](CCCNC(=N)N)C(=O)N[C@H]1CCSC[C@@H](C(=O)N[C@@H](Cc2ccc(OCCN)cc2)C(=O)N[C@@H](Cc2ccc3ccccc3c2)C(=O)NC2(C(=O)N[C@@H](CCC(=O)O)C(=O)N[C@@H](CC(N)=O)C(=O)N[C@@](C)(Cc3ccccc3)C(N)=O)CCOCC2)NC(=O)[C@H](CCC(N)=O)NC(=O)[C@H](Cc2c[nH]c3ccccc23)NC(=O)[C@H]([C@@H](C)O)NC(=O)[C@H](CCC(N)=O)NC1=O [Compound 123, Ac-[(D)Arg]-[Abu]-Q-T-W-Q-[Cys]-Phe[4-(2-aminoethoxy)]-[2-Nal]-[THP]-E-N-[a-MePhe]-NH2]
IC50: 11 nM

CC(=O)NCCCC[C@@H]1NC(=O)[C@H](Cc2c[nH]c3c(C)cccc23)NC(=O)[C@H]([C@@H](C)O)NC(=O)[C@H](CC(N)=O)NC(=O)[C@@H](NC(=O)[C@@H](CCCNC(=N)N)NC(C)=O)C(C)(C)SSC(C)(C)[C@@H](C(=O)N[C@@H](Cc2ccc(OCCN)cc2)C(=O)N[C@@H](Cc2ccc3ccccc3c2)C(=O)NC2(C(=O)N[C@@H](CCC(=O)O)C(=O)N[C@@H](CC(N)=O)C(=O)N[C@@](C)(Cc3ccccc3)C(N)=O)CCOCC2)NC1=O [Compound 124, Ac-[(D)Arg]-[Pen]-N-T-[W(7-Me)]-[Lys(Ac)]-[Pen]-Phe[4-(2-aminoethoxy)]-[2-Nal]-[THP]-E-N-[a-MePhe]-NH2] (Ac-[dR][Pen]NT[Trp(7-Me)]K(Ac)[Pen][AEF][2Nal][Thp]EN[αMeF]-NH2; disulfide 2-7)
IC50: 11 nM

CC(=O)N[C@H](CCCNC(=N)N)C(=O)N[C@@H]1C(=O)N[C@@H](CCC(N)=O)C(=O)N[C@@H]([C@@H](C)O)C(=O)N[C@@H](Cc2c[nH]c3ccccc23)C(=O)N[C@@H](CCC(N)=O)C(=O)N[C@H](C(=O)N[C@@H](Cc2ccc(OCCN)cc2)C(=O)N[C@@H](Cc2ccc3ccccc3c2)C(=O)NC2(C(=O)N[C@@H](CCC(=O)O)C(=O)N[C@@H](CC(N)=O)C(=O)N[C@@H](CC(=O)NC3CCNCC3)C(N)=O)CCOCC2)C(C)(C)SSC1(C)C [Compound 127, Ac-[(D)Arg]-[Pen]-Q-T-W-Q-[Pen]-Phe[4-(2-aminoethoxy)]-[2-Nal]-[THP]-E-N-[(N-Pip)Asn]-NH2] (Ac-[dR][Pen]QTWQ[Pen][AEF][2Nal][Thp]END(X4)-NH2; disulfide 2-7)
IC50: 48 nM

CC(=O)N[C@H](CCCNC(=N)N)C(=O)N[C@@H]1C(=O)N[C@@H](CCC(N)=O)C(=O)N[C@@H]([C@@H](C)O)C(=O)N[C@@H](Cc2c[nH]c3ccccc23)C(=O)N[C@@H](CCC(N)=O)C(=O)N[C@H](C(=O)N[C@@H](Cc2ccc(OCCN)cc2)C(=O)N[C@@H](Cc2ccc3ccccc3c2)C(=O)NC2(C(=O)N[C@@H](CCC(=O)O)C(=O)N[C@@H](CC(N)=O)C(=O)N[C@@H](CC(=O)Nc3cccc(N)c3)C(N)=O)CCOCC2)C(C)(C)SSC1(C)C [Compound 130, Ac-[(D)Arg]-[Pen]-Q-T-W-Q-[Pen]-Phe[4-(2-aminoethoxy)]-[2-Nal]-[THP]-E-N-[(N-(3-aminophenyl))Asn]-NH2] (Ac-[dR][Pen]QTWQ[Pen][AEF][2Nal][Thp]END(X7)-NH2; disulfide 2-7)
IC50: 9.2 nM

CC(=O)N[C@H](CCCNC(=N)N)C(=O)N[C@@H]1C(=O)N[C@@H](CCC(N)=O)C(=O)N[C@@H]([C@@H](C)O)C(=O)N[C@@H](Cc2c[nH]c3ccccc23)C(=O)N[C@@H](CCC(N)=O)C(=O)N[C@H](C(=O)N[C@@H](Cc2ccc(OCCN)cc2)C(=O)N[C@@H](Cc2ccc3ccccc3c2)C(=O)NC2(C(=O)N[C@@H](CCC(=O)O)C(=O)N[C@@H](CC(N)=O)C(=O)N[C@@H](CC(=O)Nc3cc[nH]n3)C(N)=O)CCOCC2)C(C)(C)SSC1(C)C [Compound 133, Ac-[(D)Arg]-[Pen]-Q-T-W-Q-[Pen]-Phe[4-(2-aminoethoxy)]-[2-Nal]-[THP]-E-N-[(N-(3-Pyz))Asn]-NH2] (Ac-[dR][Pen]QTWQ[Pen][AEF][2Nal][Thp]END(X6)-NH2; disulfide 2-7)
IC50: 21 nM

CC(=O)N[C@H](CCCNC(=N)N)C(=O)N[C@@H]1C(=O)N[C@@H](CCC(N)=O)C(=O)N[C@@H]([C@@H](C)O)C(=O)N[C@@H](Cc2c[nH]c3ccccc23)C(=O)N[C@@H](CCC(N)=O)C(=O)N[C@H](C(=O)N[C@@H](Cc2ccc(OCCN)cc2)C(=O)N[C@@H](Cc2ccc3ccccc3c2)C(=O)NC2(C(=O)N[C@@H](CCC(=O)O)C(=O)N[C@@H](CC(N)=O)C(=O)N[C@@H](CC(=O)NCc3ncc[nH]3)C(N)=O)CCOCC2)C(C)(C)SSC1(C)C [Compound 137, Ac-[(D)Arg]-[Pen]-Q-T-W-Q-[Pen]-Phe[4-(2-aminoethoxy)]-[2-Nal]-[THP]-E-N-[(N-(imidazol-2-yl)methyl)Asn]-NH2] (Ac-[dR][Pen]QTWQ[Pen][AEF][2Nal][Thp]END(X2)-NH2; disulfide 2-7)
IC50: 14 nM

CC(=O)NCCCC[C@@H]1NC(=O)[C@H](Cc2c[nH]c3c(C)cccc23)NC(=O)[C@H]([C@@H](C)O)NC(=O)[C@H](CC(N)=O)NC(=O)[C@@H](NC(C)=O)C(C)(C)SSC(C)(C)[C@@H](C(=O)N[C@@H](Cc2ccc(OCCN)cc2)C(=O)N[C@@H](Cc2ccc3ccccc3c2)C(=O)NC2(C(=O)N[C@@H](CCCCNC(=O)C(F)(F)F)C(=O)N[C@@H](CC(N)=O)C(=O)N[C@@](C)(Cc3ccccc3)C(N)=O)CCOCC2)NC1=O [Compound 138, Ac-[Pen]-N-T-[W(7-Me)]-[Lys(Ac)]-[Pen]-Phe[4-(2-aminoethoxy)]-[2-Nal]-[THP]-[Lys(COCF3)]-N-[a-MePhe]-NH2]
IC50: 7.6 nM

CC(=O)NCCCC[C@@H]1NC(=O)[C@H](Cc2c[nH]c3c(C)cccc23)NC(=O)[C@H]([C@@H](C)O)NC(=O)[C@H](CC(N)=O)NC(=O)[C@@H](NC(C)=O)C(C)(C)SSC(C)(C)[C@@H](C(=O)N[C@@H](Cc2ccc(OCCN)cc2)C(=O)N[C@@H](Cc2ccc3ccccc3c2)C(=O)NC2(C(=O)N[C@@H](CCCCNC(=O)C(C)(C)C)C(=O)N[C@@H](CC(N)=O)C(=O)N[C@@](C)(Cc3ccccc3)C(N)=O)CCOCC2)NC1=O [Compound 139, Ac-[Pen]-N-T-[W(7-Me)]-[Lys(Ac)]-[Pen]-Phe[4-(2-aminoethoxy)]-[2-Nal]-[THP]-[Lys(COtBu)]-N-[a-MePhe]-NH2]
IC50: 6.6 nM

CC(=O)NCCCC[C@@H]1NC(=O)[C@H](Cc2c[nH]c3c(C)cccc23)NC(=O)[C@H]([C@@H](C)O)NC(=O)[C@H](CC(N)=O)NC(=O)[C@@H](NC(C)=O)C(C)(C)SSC(C)(C)[C@@H](C(=O)N[C@@H](Cc2ccc(OCCN)cc2)C(=O)N[C@@H](Cc2ccc3ccccc3c2)C(=O)NC2(C(=O)N[C@@H](CCCCNC(=O)C(F)(F)F)C(=O)N[C@@H](CC(N)=O)C(=O)NC3(C(N)=O)CCOCC3)CCOCC2)NC1=O [Compound 140, Ac-[Pen]-N-T-[W(7-Me)]-[Lys(Ac)]-[Pen]-Phe[4-(2-aminoethoxy)]-[2-Nal]-[THP]-[Lys(COCF3)]-N-[THP]-NH2]
IC50: 2.6 nM

CC(=O)NCCCC[C@@H]1NC(=O)[C@H](Cc2c[nH]c3c(C)cccc23)NC(=O)[C@H]([C@@H](C)O)NC(=O)[C@H](CC(N)=O)NC(=O)[C@@H](NC(C)=O)C(C)(C)SSC(C)(C)[C@@H](C(=O)N[C@@H](Cc2ccc(OCCN)cc2)C(=O)N[C@@H](Cc2ccc3ccccc3c2)C(=O)NC2(C(=O)N[C@@H](CCCCNC(=O)C(C)(C)C)C(=O)N[C@@H](CC(N)=O)C(=O)NC3(C(N)=O)CCOCC3)CCOCC2)NC1=O [Compound 141, Ac-[Pen]-N-T-[W(7-Me)]-[Lys(Ac)]-[Pen]-Phe[4-(2-aminoethoxy)]-[2-Nal]-[THP]-[Lys(COtBu)]-N-[THP]-NH2]
IC50: 3.7 nM

CC(=O)N[C@H](CCCNC(=N)N)C(=O)N[C@@H]1C(=O)N[C@@H](CC(N)=O)C(=O)N[C@@H]([C@@H](C)O)C(=O)N[C@@H](Cc2c[nH]c3c(C)cccc23)C(=O)N[C@@H](CCCNC(N)=O)C(=O)N[C@H](C(=O)N[C@@H](Cc2ccc(OCCN)cc2)C(=O)N[C@@H](Cc2ccc3ccccc3c2)C(=O)N[C@@](C)(CC(C)C)C(=O)N[C@@H](CCC(=O)O)C(=O)N[C@@H](CC(N)=O)C(=O)N[C@@](C)(Cc2ccccc2)C(N)=O)C(C)(C)SSC1(C)C [Compound 149, Ac-[(D)Arg]-[Pen]-N-T-[W(7-Me)]-[Cit]-[Pen]-Phe[4-(2-aminoethoxy)]-[2-Nal]-[aMeLeu]-E-N-[a-MePhe]-NH2] (Ac-[dR][Pen]NT[Trp(7-Me)][Cit][Pen][AEF][2Nal][αMeL]EN[αMeF]-NH2; disulfide 2-7)
IC50: 2.3 nM

CC(=O)NCCCC[C@@H]1NC(=O)[C@H](Cc2c[nH]c3c(C)cccc23)NC(=O)[C@H]([C@@H](C)O)NC(=O)[C@H](CC(N)=O)NC(=O)[C@@H](NC(=O)[C@@H](CCCNC(=N)N)NC(C)=O)C(C)(C)SSC(C)(C)[C@@H](C(=O)N[C@@H](Cc2ccc(OCCN)cc2)C(=O)N[C@@H](Cc2ccc3ccccc3c2)C(=O)NC2(C(=O)N[C@@](C)(CCC(=O)O)C(=O)N[C@@H](CC(N)=O)C(=O)N[C@@](C)(Cc3ccc(O)cc3)C(N)=O)CCOCC2)NC1=O [Compound 150, Ac-[(D)Arg]-[Pen]-N-T-[W(7-Me)]-[Lys(Ac)]-[Pen]-Phe[4-(2-aminoethoxy)]-[2-Nal]-[THP]-[aMeGlu]-N-[aMeTyr]-NH2] (Ac-[dR][Pen]NT[Trp(7-Me)]K(Ac)[Pen][AEF][2Nal][Thp][αMeE]N[αMeY]-NH2; disulfide 2-7)
IC50: 4.7 nM

CC(=O)NCCCC[C@@H]1NC(=O)[C@H](Cc2c[nH]c3c(C)cccc23)NC(=O)[C@H]([C@@H](C)O)NC(=O)[C@H](CC(N)=O)NC(=O)[C@@H](NC(C)=O)C(C)(C)SSC(C)(C)[C@@H](C(=O)N[C@@H](Cc2ccc(OCCN)cc2)C(=O)N[C@@H](Cc2ccc3ccccc3c2)C(=O)N[C@@](C)(CCCCN)C(=O)N[C@@H](CCCCNC(C)=O)C(=O)N[C@@H](CC(N)=O)C(=O)N[C@@](C)(Cc2ccc(O)cc2)C(N)=O)NC1=O [Compound 151, Ac-[Pen]-N-T-[W(7-Me)]-[Lys(Ac)]-[Pen]-Phe[4-(2-aminoethoxy)]-[2-Nal]-[a-MeLys]-[Lys(Ac)]-N-[aMeTyr]-NH2]
IC50: 5.7 nM

CC(=O)NCCCC[C@H](NC(=O)[C@](C)(CCCCN)NC(=O)[C@H](Cc1ccc2ccccc2c1)NC(=O)[C@H](Cc1ccc(OCCN)cc1)NC(=O)[C@H]1NC(=O)[C@H](CCCNC(N)=O)NC(=O)[C@H](Cc2c[nH]c3c(C)cccc23)NC(=O)[C@H]([C@@H](C)O)NC(=O)[C@H](CC(N)=O)NC(=O)[C@@H](NC(C)=O)C(C)(C)SSC1(C)C)C(=O)N[C@@H](CC(N)=O)C(=O)NC(C)(C)C(N)=O [Compound 302, MeCO-Pen-N-T-7MeW-Cit-Pen-AEF-2Nal-aMeK-K(Ac)-N-Aib-CONH2] (Ac-[Pen]NT[Trp(7-Me)][Cit][Pen][AEF][2Nal][αMeK]K(Ac)N[Aib]-NH2; disulfide 1-6)
IC50: 7 nM

Reference: patent US20240383954A1, “PEPTIDE INHIBITORS OF INTERLEUKIN-23 RECEPTOR AND THEIR USE TO TREAT INFLAMMATORY DISEASES” (Janssen Biotech, Inc., priority 2020, published 2024)
